Consider three compounds from publication PMC8467575, “Bacterial-Specific Aggregation and Killing of Immunomodulatory Host Defense Peptides” (Pharmaceuticals, 2021).

Series [1] has as its system E. coli (ATCC 25922GFP) in Caco-2 cells. Kind of series: Bacterial infection of Caco-2 cells. The conditions noted are these: 400,000 CFU/mL GFP-expressing E. coli, 5 µM peptide, 5 h, fluorescence microscopy. In kind it is cell-based, Escherichia coli. The protocol: Caco-2 cells grown in six-well plates were also infected with E. coli (ATCC 25922GFP) at a CFU of 400,000 cells/mL. Cells were then incubated with 5 µM of TAMRA-labeled peptides for 5 h and were observed under fluorescence microscope for the presence of fluorescent bacteria.

Series [2] has as its system Staphylococcus aureus ATCC 25923. The experiment in a line: microbe, parasite or virus in culture. It counts as cell-based. The method, then:
(§1) E. coli, S. aureus, and S. enterica were cultured in nutrient broth at 37 °C. Listeria was cultured in brain heart infusion broth at 37 °C. Bacteria at early log phase (OD600 ≈ 0.1) were incubated with the peptides at different concentrations (100–3.12 µM) for 4–6 h. After the incubation period, the bacterial culture medium was diluted at different ratios (1 in 2000–2,000,000) in sterile PBS and was spread on blood agar (BA) plates. BA plates were incubated at 37 °C for 24 h, and the number of colonies formed was counted to determine cell viability.

Series [3] concerns Salmonella enterica ATCC 13076. The experiment in a line: microbe, parasite or virus in culture. It counts as cell-based. The settings on record: for MIC: read-out: MIC S. enterica. The protocol:
as §1

Series [4] relates to Escherichia coli ATCC 25922. The experiment in a line: microbe, parasite or virus in culture. It counts as cell-based. The method, then:
as §1

Series [5] has as its system chicken red blood cell suspension. The experiment in a line: Hemolysis assay. It counts as cell-based. The conditions noted are these: eukaryotic cells (cytotoxicity and hemolysis at 100 µM) versus antibacterial IC50. The method, then:
A chicken red blood cell suspension was purchased from Cedarlane (Burlington, CA). RBCs were incubated with a 100 µM concentration of each peptide at 37 °C for 4 h. Triton-X was used as a positive control to achieve total hemolysis of RBCs. Percentage hemolysis was determined in triplicate by centrifuging down the RBC suspension and by measuring the absorbance of the supernatant at 540 nm. (2) % Hemolysis=Absorbance of sample @540nm /Absorbance of positive control @540nm×100%.

The test system of series [6] is Listeria monocytogenes ATCC 19115. In kind it is cell-based. The protocol:
as §1

Series [7] relates to E. coli. The experiment in a line: Bacterial uptake of TAMRA-labeled peptides. The settings on record: 5 µM, up to 5 h, log phase culture, fluorescence of free peptide in supernatant, triplicate. It counts as cell-based, Escherichia coli. The protocol: (§2) TAMRA-conjugated peptides were used for cellular uptake studies. Liquid cultures of E. coli and Bacillus subtilis at log phase (OD600 ≈ 0.3–0.4) were incubated with TAMRA-labeled peptides (5 µM), and the percentage uptake of peptides was determined in triplicate for 5 h by measuring the fluorescence of free peptide in the supernatant of bacteria at […] wavelengths of 579 and 546 nm. (1) % Uptake=100−Fluorescence of supernatant/Initial fluorescence of sample×100%

The test system of series [8] is Caco-2 human colorectal adenocarcinoma cells. Kind of series: Cellular uptake of TAMRA-labeled peptides (flow cytometry, fluorescence microscopy). In kind it is cell-based. The settings on record: 5 h. The protocol:
Caco-2 human colorectal adenocarcinoma cells were cultured to growth phase (~70% confluency) in EMEM containing 20% FBS and were treated with 5 µM of TAMRA-labeled peptides for 5 h. The uptake of fluorescently labeled peptide in Caco-2 human colorectal adenocarcinoma cells was measured by flow cytometry using BD FACS Calibur (BD Biosciences (Franklin Lakes, NJ, USA)) and by fluorescence microscopy.
On the technique in general: In flow cytometry, cells or beads pass a laser one at a time.

For series [9], the system named is Bacillus subtilis. The experiment in a line: Bacterial uptake of TAMRA-labeled peptides. In kind it is cell-based. The settings on record: 5 µM, up to 5 h, log phase culture, fluorescence of free peptide in supernatant, triplicate. The method, then:
as §2

Series [10] has as its system Caco-2 cells. Kind of series: Cytotoxicity assay (MTS). In kind it is cell-based, human. The conditions noted are these: 100 µM peptide, 24 h, triplicate. The method, then: (§3) DF-1 chicken embryonic fibroblasts were cultured in DMEM containing 8% FBS and 2% CS. Caco-2 cells were cultured in EMEM containing 20% FBS. Cells in growth phase (~70% confluency) were incubated with a 100 µM concentration of each peptide for 24 h. Cell viability was determined in triplicate by MTS assay using the CellTiter 96® AQueous Cell Proliferation Assay, as per the manufacturer’s protocol.

Series [11] relates to DF-1 chicken embryonic fibroblasts. The experiment in a line: Cytotoxicity assay (MTS). It counts as cell-based. The settings on record: 100 µM peptide, 24 h, triplicate. The protocol: as §3

pIC50: −log10 of the molar value. Converted amounts (≈) assume the structure as drawn. Like-named read-outs stand apart in the source and are kept apart here. Where a SMILES comes first, the peptide text is derived from it. Bridges are numbered along the chain shown (N, C = ends).

In general, pIC50 refers to the IC50 on a negative log10 scale, so that one unit is a factor of ten.

As for `CC[C@H](C)[C@@H]1NC(=O)[C@H](CCCNC(=N)N)NC(=O)[C@H](Cc2ccccc2)NC(=O)[C@H](CCCCN)NC(=O)[C@H](Cc2ccccc2)NC(=O)[C@H](CCCNC(=N)N)NC(=O)[C@@H](N)CSSC[C@@H](C(N)=O)NC(=O)[C@H]([C@@H](C)CC)NC(=O)[C@H](C(C)C)NC1=O` [mCA4-5] (H-CRFKFRIVIC-NH2; disulfide 1-10), the “reduction of bacterial infection of Caco-2 cells” value in [1] is “actively contained and reduced bacterial infections”. Besides, in series [2] (ATCC 25923), the pIC50 is 5.40 and the “MIC S. aureus” value is reported as 15 µM (≈ 19.2 µg/mL). Further, in series [3] (ATCC 13076), the pIC50 was 4.99 and the MIC was found to be 30 µM (≈ 38.5 µg/mL). Moreover, in series [4] (ATCC 25922), the pIC50 was 4.82 and the “MIC E. coli” value is 40 µM (≈ 51.3 µg/mL). Also, the “nontoxic and hemocompatible concentration as fold of the IC50 of the peptide” value in series [5] is recorded as above 6 fold. Further, in [6], the pIC50 is 5.28 and the “MIC L. monocytogenes” value is reported as 10 µM (≈ 12.8 µg/mL).
`N=C(N)NCCC[C@@H]1NC(=O)[C@H](CCCNC(=N)N)NC(=O)[C@H](CCCNC(=N)N)NC(=O)[C@@H](N)CSSC[C@@H](C(N)=O)NC(=O)[C@H](Cc2c[nH]cn2)NC(=O)[C@@H]2CCCN2C(=O)[C@H](CO)NC(=O)CNC1=O` [mCA4-4] (H-CRRRGSPHC-NH2; disulfide 1-9): the “reduction of bacterial infection of Caco-2 cells” value in series [1] was “unable to reduce the bacterial burden”. In addition, the “uptake of TAMRA-labeled peptide in E. coli” value in series [7] is given as “taken up well”. For the same compound, the “% fluorescent cells (cellular uptake)” value in [8] (Caco-2, 5 µM TAMRA-labeled peptide, flow cytometry) is 19%. Also, in series [8] (Caco-2, TAMRA-labeled peptide), the “uptake of fluorescent peptide seen by fluorescence microscopy” value is “weak fluorescence”. Further, in [9], the “uptake of TAMRA-labeled peptide in B. subtilis” value is “taken up well”. For the same compound, the “viability of Caco-2 intestinal epithelial cells” value in series [10] is “did not compromise the viability”. The “viability of DF-1 fibroblasts” value in [11] was “did not compromise the viability”.
On to `CC1(C)S[C@@H]2[C@H](NC(=O)[C@H](N)c3ccccc3)C(=O)N2[C@H]1C(=O)O` [Ampicillin, reference compound], for which the negative logarithm of the IC50 (pIC50) in series [2] (Staphylococcus aureus, ATCC25923, early log phase (OD600 ≈ 0.1), nutrient broth 37 °C, peptide 100–3.12 µM for 4–6 h, colony count on blood agar after 24 h, read-out: IC50 S. aureus) was 5.44; in [3] (Salmonella enterica, ATCC13076, early log phase (OD600 ≈ 0.1), nutrient broth 37 °C, peptide 100–3.12 µM for 4–6 h, colony count on blood agar after 24 h, read-out: IC50 S. enterica), 5.15; in series [4] (Escherichia coli, ATCC25922, early log phase (OD600 ≈ 0.1), nutrient broth 37 °C, peptide 100–3.12 µM for 4–6 h, colony count on blood agar after 24 h, read-out: IC50 E. coli), 4.82. The MIC in series [3] (Salmonella enterica, ATCC13076, early log phase, nutrient broth 37 °C, 4–6 h, colony count on blood agar) worked out at 13.5 µM (≈ 4.72 µg/mL).
